According to ChEMBL document CHEMBL3414527, “Engineering potent and selective analogues of GpTx-1, a tarantula venom peptide antagonist of the Na(V)1.7 sodium channel” (J Med Chem, 2015):
pIC50: −log10 of the molar value. Bridge positions count the residues as written; N and C are the ends. Peptide text beside a SMILES is read from it.

How the values were obtained:
[1] = target: Sodium channel protein type 5 subunit alpha (Homo sapiens, UniProt Q14524); test: Inhibition of human NaV1.5 at -140 mV holding potential by whole-cell patch clamp assay
Sodium channel protein type 5 subunit alpha, sequence (Q14524 whole entry): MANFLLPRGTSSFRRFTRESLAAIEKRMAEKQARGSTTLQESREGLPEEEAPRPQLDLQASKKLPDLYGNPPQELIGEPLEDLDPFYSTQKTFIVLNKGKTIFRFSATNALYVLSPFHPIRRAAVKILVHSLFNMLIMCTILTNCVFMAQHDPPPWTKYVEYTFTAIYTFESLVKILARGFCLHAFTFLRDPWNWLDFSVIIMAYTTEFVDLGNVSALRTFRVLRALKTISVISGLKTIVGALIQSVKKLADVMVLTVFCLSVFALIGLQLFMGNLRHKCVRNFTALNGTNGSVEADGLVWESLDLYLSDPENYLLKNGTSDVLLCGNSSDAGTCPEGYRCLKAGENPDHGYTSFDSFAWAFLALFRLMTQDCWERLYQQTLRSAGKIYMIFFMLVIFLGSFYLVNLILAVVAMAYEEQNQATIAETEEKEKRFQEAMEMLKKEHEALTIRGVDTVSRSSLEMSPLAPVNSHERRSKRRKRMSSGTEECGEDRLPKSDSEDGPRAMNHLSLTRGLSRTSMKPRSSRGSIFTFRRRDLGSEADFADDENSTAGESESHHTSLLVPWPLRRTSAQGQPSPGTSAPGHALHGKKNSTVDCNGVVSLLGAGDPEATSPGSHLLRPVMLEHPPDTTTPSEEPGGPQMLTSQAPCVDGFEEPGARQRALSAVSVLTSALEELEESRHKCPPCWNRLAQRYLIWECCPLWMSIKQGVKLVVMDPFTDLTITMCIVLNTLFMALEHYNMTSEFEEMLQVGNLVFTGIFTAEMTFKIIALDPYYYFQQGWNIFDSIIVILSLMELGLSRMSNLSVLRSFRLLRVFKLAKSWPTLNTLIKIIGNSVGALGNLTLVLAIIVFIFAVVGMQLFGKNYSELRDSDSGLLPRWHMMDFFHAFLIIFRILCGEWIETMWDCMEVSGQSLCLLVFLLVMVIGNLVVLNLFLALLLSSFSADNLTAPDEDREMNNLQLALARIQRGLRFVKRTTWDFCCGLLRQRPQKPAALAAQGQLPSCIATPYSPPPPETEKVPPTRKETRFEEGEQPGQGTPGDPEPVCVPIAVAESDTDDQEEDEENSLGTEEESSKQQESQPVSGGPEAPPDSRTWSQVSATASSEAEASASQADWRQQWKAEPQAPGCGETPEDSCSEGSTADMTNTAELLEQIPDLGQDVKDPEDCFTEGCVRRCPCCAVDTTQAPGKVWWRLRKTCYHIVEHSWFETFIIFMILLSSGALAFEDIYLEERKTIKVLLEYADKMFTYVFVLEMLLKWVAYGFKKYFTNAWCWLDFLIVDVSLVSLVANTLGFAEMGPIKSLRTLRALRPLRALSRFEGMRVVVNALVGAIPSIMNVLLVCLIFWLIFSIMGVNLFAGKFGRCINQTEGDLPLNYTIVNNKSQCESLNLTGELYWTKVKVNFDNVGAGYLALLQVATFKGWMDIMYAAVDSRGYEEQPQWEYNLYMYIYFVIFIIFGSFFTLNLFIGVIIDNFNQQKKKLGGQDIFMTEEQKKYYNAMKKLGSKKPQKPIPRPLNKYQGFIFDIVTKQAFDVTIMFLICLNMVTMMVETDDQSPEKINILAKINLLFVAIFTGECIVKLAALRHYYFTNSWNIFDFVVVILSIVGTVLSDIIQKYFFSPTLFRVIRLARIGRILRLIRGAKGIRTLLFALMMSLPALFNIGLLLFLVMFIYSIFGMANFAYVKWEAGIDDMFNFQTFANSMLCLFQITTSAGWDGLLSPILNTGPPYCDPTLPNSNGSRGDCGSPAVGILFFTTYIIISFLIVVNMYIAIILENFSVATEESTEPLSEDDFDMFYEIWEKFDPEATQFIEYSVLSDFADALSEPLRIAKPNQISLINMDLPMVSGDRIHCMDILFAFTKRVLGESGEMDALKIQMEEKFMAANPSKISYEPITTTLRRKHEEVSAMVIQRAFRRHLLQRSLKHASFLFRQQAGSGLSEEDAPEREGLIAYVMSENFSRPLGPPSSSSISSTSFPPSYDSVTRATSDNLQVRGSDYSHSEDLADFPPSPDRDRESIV

[2] = target: Sodium channel protein type 9 subunit alpha (Homo sapiens, UniProt Q15858); test: Inhibition of human NaV1.7 at -140 mV holding potential by whole-cell patch clamp assay
Sodium channel protein type 9 subunit alpha, sequence (Q15858 whole entry): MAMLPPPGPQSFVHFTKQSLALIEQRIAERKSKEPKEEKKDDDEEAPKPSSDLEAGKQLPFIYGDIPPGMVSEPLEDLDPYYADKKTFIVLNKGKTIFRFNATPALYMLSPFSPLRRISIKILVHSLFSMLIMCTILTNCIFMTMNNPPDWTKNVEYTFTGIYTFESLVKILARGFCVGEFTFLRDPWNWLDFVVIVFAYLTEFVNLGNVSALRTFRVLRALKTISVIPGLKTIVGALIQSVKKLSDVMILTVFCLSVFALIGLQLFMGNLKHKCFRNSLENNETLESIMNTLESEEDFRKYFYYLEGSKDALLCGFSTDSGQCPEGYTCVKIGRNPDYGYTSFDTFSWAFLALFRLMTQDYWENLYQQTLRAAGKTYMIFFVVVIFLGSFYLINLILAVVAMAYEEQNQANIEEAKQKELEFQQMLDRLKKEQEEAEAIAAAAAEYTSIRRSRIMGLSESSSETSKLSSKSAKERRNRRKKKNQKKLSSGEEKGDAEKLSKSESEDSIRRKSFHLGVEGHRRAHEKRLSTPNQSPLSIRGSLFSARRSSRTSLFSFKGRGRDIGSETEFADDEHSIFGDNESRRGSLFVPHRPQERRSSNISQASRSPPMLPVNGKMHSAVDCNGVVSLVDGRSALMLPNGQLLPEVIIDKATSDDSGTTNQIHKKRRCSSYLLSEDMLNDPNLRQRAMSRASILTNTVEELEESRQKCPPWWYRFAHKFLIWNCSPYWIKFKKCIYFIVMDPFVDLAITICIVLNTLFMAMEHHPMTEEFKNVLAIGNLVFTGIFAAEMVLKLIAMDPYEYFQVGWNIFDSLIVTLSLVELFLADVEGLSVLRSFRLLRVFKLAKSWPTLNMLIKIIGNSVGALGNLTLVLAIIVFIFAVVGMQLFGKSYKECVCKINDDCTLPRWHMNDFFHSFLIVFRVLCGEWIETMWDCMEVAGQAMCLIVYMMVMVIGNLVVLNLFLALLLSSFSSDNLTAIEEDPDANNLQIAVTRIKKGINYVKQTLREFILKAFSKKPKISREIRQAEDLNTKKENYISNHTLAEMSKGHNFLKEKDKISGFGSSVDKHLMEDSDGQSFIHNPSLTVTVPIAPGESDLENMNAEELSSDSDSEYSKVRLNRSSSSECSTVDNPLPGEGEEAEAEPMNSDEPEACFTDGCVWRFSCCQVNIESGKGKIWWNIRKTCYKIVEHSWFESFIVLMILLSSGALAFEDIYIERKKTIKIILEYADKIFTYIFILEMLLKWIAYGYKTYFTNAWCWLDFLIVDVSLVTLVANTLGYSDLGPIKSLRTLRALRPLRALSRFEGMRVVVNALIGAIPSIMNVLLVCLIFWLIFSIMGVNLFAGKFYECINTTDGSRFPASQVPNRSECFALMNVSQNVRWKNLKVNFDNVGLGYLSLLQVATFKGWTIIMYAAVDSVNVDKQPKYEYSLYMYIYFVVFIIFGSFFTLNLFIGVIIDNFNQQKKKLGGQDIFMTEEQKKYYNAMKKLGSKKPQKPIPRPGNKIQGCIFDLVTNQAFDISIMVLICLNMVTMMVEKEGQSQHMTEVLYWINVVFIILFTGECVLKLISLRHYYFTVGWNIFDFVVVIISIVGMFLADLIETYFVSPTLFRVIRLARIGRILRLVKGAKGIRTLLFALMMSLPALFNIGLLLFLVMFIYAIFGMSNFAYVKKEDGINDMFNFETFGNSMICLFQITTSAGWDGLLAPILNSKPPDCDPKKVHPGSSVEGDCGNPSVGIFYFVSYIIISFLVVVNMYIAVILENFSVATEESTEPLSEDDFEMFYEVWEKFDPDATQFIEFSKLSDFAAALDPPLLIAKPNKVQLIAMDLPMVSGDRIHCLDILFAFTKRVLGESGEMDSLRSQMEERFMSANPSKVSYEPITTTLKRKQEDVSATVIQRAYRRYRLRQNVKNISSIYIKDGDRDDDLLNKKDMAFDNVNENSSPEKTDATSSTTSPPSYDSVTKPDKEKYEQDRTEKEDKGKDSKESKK

Compound `CC[C@H](C)[C@@H]1NC(=O)[C@@H]2CSSC[C@@H]3NC(=O)[C@H](C(C)C)NC(=O)[C@H](C)NC(=O)[C@H](CC(N)=O)NC(=O)[C@@H]4CCCN4C(=O)[C@H](CCCNC(=N)N)NC(=O)[C@H](CSSC[C@H](NC(=O)[C@@H](N)CC(=O)O)C(=O)N[C@@H](CC(C)C)C(=O)NCC(=O)N[C@@H](Cc4ccccc4)C(=O)N[C@@H](CCSC)C(=O)N[C@@H](CCCNC(=N)N)C(=O)N[C@@H](CCCCN)C(=O)N2)NC(=O)[C@H](CSSC[C@@H](C(=O)N[C@@H](CCCCN)C(=O)N[C@@H](Cc2ccc(O)cc2)C(=O)N[C@H](C(=O)N[C@@H](Cc2ccccc2)C(N)=O)C(C)C)NC(=O)[C@H](Cc2c[nH]c4ccccc24)NC(=O)[C@H](CCCCN)NC(=O)[C@H](Cc2cnc[nH]2)NC(=O)[C@H]([C@@H](C)O)NC(=O)[C@H](CCCNC(=N)N)NC(=O)[C@H](CO)NC3=O)NC(=O)[C@H](CCCCN)NC(=O)[C@H](CC(=O)O)NC(=O)[C@H](CC(N)=O)NC(=O)[C@H](CC(=O)O)NC(=O)[C@@H]2CCCN2C1=O` (H-DCLGFMRKCIPDNDKCCRPNAVCSRTHKWCKYVF-NH2; disulfide 2-17, 9-23, 16-30) has a pIC50 [1] of under 4.70 and a pIC50 [2] of 6.72.

Work on `CCC[C@@H]1NC(=O)CNC(=O)[C@H](CC(C)C)NC(=O)[C@@H](NC(=O)[C@@H](N)CC(=O)O)CSSC[C@@H]2NC(=O)[C@@H]3CSSC[C@@H](C(=O)N[C@@H](CCCCN)C(=O)N[C@@H](Cc4ccc(O)cc4)C(=O)N[C@H](C(=O)N[C@@H](Cc4ccccc4)C(N)=O)C(C)C)NC(=O)[C@H](Cc4c[nH]c5ccccc45)NC(=O)[C@H](CCCCN)NC(=O)[C@H](Cc4cnc[nH]4)NC(=O)[C@H]([C@@H](C)O)NC(=O)[C@H](CCCNC(=N)N)NC(=O)[C@H](CO)NC(=O)[C@H](CSSC[C@H](NC(=O)[C@H](CCCCN)NC(=O)[C@H](CCCNC(=N)N)NC(=O)[C@H](CCSC)NC1=O)C(=O)N[C@@H]([C@@H](C)CC)C(=O)N1CCC[C@H]1C(=O)N[C@@H](CC(=O)O)C(=O)N[C@@H](CC(N)=O)C(=O)N[C@@H](CC(=O)O)C(=O)N[C@@H](CCCCN)C(=O)N3)NC(=O)[C@H](C(C)C)NC(=O)[C@H](CC(C)C)NC(=O)[C@H](CC(N)=O)NC(=O)[C@@H]1CCCN1C(=O)[C@H](CCCNC(=N)N)NC2=O` yielded a pIC50 [1] of under 5.00 and a pIC50 [2] of 7.41.

With `CC[C@H](C)[C@@H]1NC(=O)[C@@H]2CSSC[C@@H]3NC(=O)[C@H](C(C)C)NC(=O)[C@H](CC(C)C)NC(=O)[C@H](CC(N)=O)NC(=O)[C@@H]4CCCN4C(=O)[C@H](CCCNC(=N)N)NC(=O)[C@H](CSSC[C@H](NC(=O)[C@@H](N)CC(=O)O)C(=O)N[C@@H](CC(C)C)C(=O)NCC(=O)N[C@@H](Cc4ccccc4)C(=O)N[C@@H](CCSC)C(=O)N[C@@H](CCCNC(=N)N)C(=O)N[C@@H](CCCCN)C(=O)N2)NC(=O)[C@H](CSSC[C@@H](C(=O)N[C@@H](CCCCN)C(=O)N[C@@H](Cc2ccc(O)cc2)C(=O)N[C@H](C(=O)N[C@@H](Cc2ccccc2)C(N)=O)C(C)C)NC(=O)[C@H](C)NC(=O)[C@H](CCCCN)NC(=O)[C@H](Cc2cnc[nH]2)NC(=O)[C@H]([C@@H](C)O)NC(=O)[C@H](CCCNC(=N)N)NC(=O)[C@H](CO)NC3=O)NC(=O)[C@H](CCCCN)NC(=O)[C@H](CC(=O)O)NC(=O)[C@H](CC(N)=O)NC(=O)[C@H](CC(=O)O)NC(=O)[C@@H]2CCCN2C1=O` (H-DCLGFMRKCIPDNDKCCRPNLVCSRTHKACKYVF-NH2; disulfide 2-17, 9-23, 16-30) the pIC50 [1] was under 5.30 and the pIC50 [2] was under 5.30.

For `CC[C@H](C)[C@@H]1NC(=O)[C@@H]2CSSC[C@@H]3NC(=O)[C@H](C(C)C)NC(=O)[C@H](CC(C)C)NC(=O)[C@H](CC(N)=O)NC(=O)[C@@H]4CCCN4C(=O)[C@H](CCCNC(=N)N)NC(=O)[C@H](CSSC[C@H](NC(=O)[C@@H](N)CC(=O)O)C(=O)N[C@@H](CC(C)C)C(=O)NCC(=O)N[C@@H](Cc4ccccc4)C(=O)N[C@@H](CCSC)C(=O)N[C@@H](CCCNC(=N)N)C(=O)N[C@@H](CCCCN)C(=O)N2)NC(=O)[C@H](CSSC[C@@H](C(=O)N[C@@H](CCCCN)C(=O)N[C@@H](Cc2ccc(O)cc2)C(=O)N[C@H](C(=O)N[C@@H](C)C(N)=O)C(C)C)NC(=O)[C@H](Cc2c[nH]c4ccccc24)NC(=O)[C@H](CCCCN)NC(=O)[C@H](Cc2cnc[nH]2)NC(=O)[C@H]([C@@H](C)O)NC(=O)[C@H](CCCNC(=N)N)NC(=O)[C@H](CO)NC3=O)NC(=O)[C@H](CCCCN)NC(=O)[C@H](CC(=O)O)NC(=O)[C@H](CC(N)=O)NC(=O)[C@H](CC(=O)O)NC(=O)[C@@H]2CCCN2C1=O` (H-DCLGFMRKCIPDNDKCCRPNLVCSRTHKWCKYVA-NH2; disulfide 2-17, 9-23, 16-30), the pIC50 [1] was under 5.30 and the pIC50 [2] was 5.92.

`CC[C@H](C)[C@@H]1NC(=O)[C@@H]2CSSC[C@@H]3NC(=O)[C@H](C(C)C)NC(=O)[C@H](CC(C)C)NC(=O)[C@H](CC(N)=O)NC(=O)[C@@H]4CCCN4C(=O)[C@H](CCCNC(=N)N)NC(=O)[C@H](CSSC[C@H](NC(=O)[C@@H](N)CC(=O)O)C(=O)N[C@@H](CC(C)C)C(=O)NCC(=O)N[C@@H](C4CCCCC4)C(=O)N[C@@H](CCSC)C(=O)N[C@@H](CCCNC(=N)N)C(=O)N[C@@H](CCCCN)C(=O)N2)NC(=O)[C@H](CSSC[C@@H](C(=O)N[C@@H](CCCCN)C(=O)N[C@@H](Cc2ccc(O)cc2)C(=O)N[C@H](C(=O)N[C@@H](Cc2ccccc2)C(N)=O)C(C)C)NC(=O)[C@H](Cc2c[nH]c4ccccc24)NC(=O)[C@H](CCCCN)NC(=O)[C@H](Cc2cnc[nH]2)NC(=O)[C@H]([C@@H](C)O)NC(=O)[C@H](CCCNC(=N)N)NC(=O)[C@H](CO)NC3=O)NC(=O)[C@H](CCCCN)NC(=O)[C@H](CC(=O)O)NC(=O)[C@H](CC(N)=O)NC(=O)[C@H](CC(=O)O)NC(=O)[C@@H]2CCCN2C1=O` was tested, and the pIC50 [1] was under 5.00 and the pIC50 [2] was 8.22.

For `CC[C@H](C)[C@@H]1NC(=O)[C@@H]2CSSC[C@@H]3NC(=O)[C@H](C(C)C)NC(=O)[C@H](CC(C)C)NC(=O)[C@H](CC(N)=O)NC(=O)[C@@H]4CCCN4C(=O)[C@H](CCCNC(=N)N)NC(=O)[C@H](CSSC[C@H](NC(=O)[C@@H](N)CC(=O)O)C(=O)N[C@@H](CC(C)C)C(=O)NCC(=O)N[C@@H](Cc4ccccc4)C(=O)N[C@@H](CCSC)C(=O)N[C@@H](CCCNC(=N)N)C(=O)N[C@@H](CCCCN)C(=O)N2)NC(=O)[C@H](CSSC[C@@H](C(=O)N[C@@H](CCCCN)C(=O)N[C@@H](Cc2ccc(O)cc2)C(=O)N[C@H](C(=O)N[C@@H](Cc2ccccc2)C(N)=O)C(C)C)NC(=O)[C@H](Cc2c[nH]c4ccccc24)NC(=O)[C@H](CCCCN)NC(=O)[C@H](Cc2cnc[nH]2)NC(=O)[C@H]([C@@H](C)O)NC(=O)[C@H](CCCNC(=N)N)NC(=O)[C@H](CO)NC3=O)NC(=O)[C@H](C)NC(=O)[C@H](CC(=O)O)NC(=O)[C@H](CC(N)=O)NC(=O)[C@H](CC(=O)O)NC(=O)[C@@H]2CCCN2C1=O` (H-DCLGFMRKCIPDNDACCRPNLVCSRTHKWCKYVF-NH2; disulfide 2-17, 9-23, 16-30), the pIC50 [1] was under 5.30 and the pIC50 [2] was 6.64.

`CC[C@H](C)[C@@H]1NC(=O)[C@@H]2CSSC[C@@H]3NC(=O)[C@H](C(C)C)NC(=O)[C@H](CC(C)C)NC(=O)[C@H](CC(N)=O)NC(=O)[C@@H]4CCCN4C(=O)[C@H](CCCNC(=N)N)NC(=O)[C@H](CSSC[C@H](NC(=O)[C@@H](N)CC(=O)O)C(=O)N[C@@H](CC(C)C)C(=O)NCC(=O)N[C@@H](Cc4ccc(-c5ccccc5)cc4)C(=O)N[C@@H](CCSC)C(=O)N[C@@H](CCCNC(=N)N)C(=O)N[C@@H](CCCCN)C(=O)N2)NC(=O)[C@H](CSSC[C@@H](C(=O)N[C@@H](CCCCN)C(=O)N[C@@H](Cc2ccc(O)cc2)C(=O)N[C@H](C(=O)N[C@@H](Cc2ccccc2)C(N)=O)C(C)C)NC(=O)[C@H](Cc2c[nH]c4ccccc24)NC(=O)[C@H](CCCCN)NC(=O)[C@H](Cc2cnc[nH]2)NC(=O)[C@H]([C@@H](C)O)NC(=O)[C@H](CCCNC(=N)N)NC(=O)[C@H](CO)NC3=O)NC(=O)[C@H](CCCCN)NC(=O)[C@H](CC(=O)O)NC(=O)[C@H](CC(N)=O)NC(=O)[C@H](CC(=O)O)NC(=O)[C@@H]2CCCN2C1=O` gave a pIC50 [2] of 7.07.

Work on `CC[C@H](C)[C@@H]1NC(=O)[C@@H]2CSSC[C@@H]3NC(=O)[C@H](C(C)C)NC(=O)[C@H](CC(C)C)NC(=O)[C@H](CC(N)=O)NC(=O)[C@@H]4CCCN4C(=O)[C@H](CCCNC(=N)N)NC(=O)[C@H](CSSC[C@H](NC(=O)[C@@H](N)CC(=O)O)C(=O)N[C@@H](CC(C)C)C(=O)NCC(=O)N[C@@H](Cc4ccccc4)C(=O)N[C@@H](CCSC)C(=O)N[C@@H](CCCNC(=N)N)C(=O)N[C@@H](CCCCN)C(=O)N2)NC(=O)[C@H](CSSC[C@@H](C(=O)N[C@@H](CCCCN)C(=O)N[C@@H](Cc2ccc(O)cc2)C(=O)N[C@H](C(=O)N[C@@H](Cc2ccccc2)C(N)=O)C(C)C)NC(=O)[C@H](Cc2c[nH]c4ccccc24)NC(=O)[C@H](CCCCN)NC(=O)[C@H](Cc2cnc[nH]2)NC(=O)[C@H](Cc2cnc[nH]2)NC(=O)[C@H](CCCNC(=N)N)NC(=O)[C@H](CO)NC3=O)NC(=O)[C@H](CCCCN)NC(=O)[C@H](CC(=O)O)NC(=O)[C@H](CC(N)=O)NC(=O)[C@H](CC(=O)O)NC(=O)[C@@H]2CCCN2C1=O` (H-DCLGFMRKCIPDNDKCCRPNLVCSRHHKWCKYVF-NH2; disulfide 2-17, 9-23, 16-30) yielded a pIC50 [2] of 8.40.

`CC[C@H](C)[C@@H]1NC(=O)[C@@H]2CSSC[C@@H]3NC(=O)[C@H](C(C)C)NC(=O)[C@H](CC(C)C)NC(=O)[C@H](CC(N)=O)NC(=O)[C@@H]4CCCN4C(=O)[C@H](CCCNC(=N)N)NC(=O)[C@H](CSSC[C@H](NC(=O)[C@@H](N)CC(=O)O)C(=O)N[C@@H](CC(C)C)C(=O)NCC(=O)N[C@@H](Cc4ccccc4)C(=O)N[C@@H](CCSC)C(=O)N[C@@H](CCCNC(=N)N)C(=O)N[C@@H](CCCCN)C(=O)N2)NC(=O)[C@H](CSSC[C@@H](C(=O)N[C@@H](CCCCN)C(=O)N[C@@H](Cc2ccc(O)cc2)C(=O)N[C@H](C(=O)N[C@@H](Cc2ccccc2)C(N)=O)C(C)C)NC(=O)[C@H](Cc2c[nH]c4ccccc24)NC(=O)[C@H](CCCNC(=N)N)NC(=O)[C@H](Cc2cnc[nH]2)NC(=O)[C@H]([C@@H](C)O)NC(=O)[C@H](CCCNC(=N)N)NC(=O)[C@H](CO)NC3=O)NC(=O)[C@H](CCCCN)NC(=O)[C@H](CC(=O)O)NC(=O)[C@H](CC(N)=O)NC(=O)[C@H](CC(=O)O)NC(=O)[C@@H]2CCCN2C1=O` showed a pIC50 [2] of 8.10.
